Assay results from paper PMC10305115, “Development of a Minimalistic Physiologically Based Pharmacokinetic (mPBPK) Model for the Preclinical Development of Spectinamide Antibiotics” (Pharmaceutics, 2023).
Read-outs that look alike come from different tables or passages of the source.

How the values were obtained:
[1] = system: plasma proteins; assay: Plasma protein binding by equilibrium dialysis (RED device), rat plasma; assay type: in vitro ADME, Sprague-Dawley rats; conditions: 0.5 and 5 mg/L, 37 °C, 4 h
Description: (§1) Plasma protein binding was measured by equilibrium dialysis using a RED device (8 kDa molecular cutoff; Thermo Scientific, Rockford, IL, USA) containing plasma and buffer chambers for dialysis and a base plate. Two concentrations (0.5 and 5 mg/L) of 1599 and 1810 were prepared in mouse plasma from BALB/c mice and rat plasma from Sprague-Dawley rats, and an aliquot of 300 µL was added in the plasma chamber in duplicate. A 500 µL aliquot of PBS was added in the buffer chamber for dialysis. Then, the base plate was covered with sealing tape and incubated at 37 °C at approximately 100 rpm on an orbital shaker for 4 h to achieve equilibrium. After incubation, 50 µL of each sample was pipetted from the plasma and buffer chambers into separate micro-centrifuge tubes. A total of 50 µL of plasma was added to the buffer samples and an equal volume of PBS to the collected plasma samples and vortexed. Samples were processed by protein precipitation and analyzed for bound and unbound drug concentrations by liquid chromatography-tandem mass spectrometry (LC-MS/MS). Ranitidine (0.5 and 5 mg/L) was included as a positive control. The fraction of compound unbound to plasma proteins (fu) was calculated from the measured concentrations in the plasma and buffer chambers using the following equation:(1) fu=1−C(Plasma Chamber)−C(Buffer Chamber)/C(Plasma Chamber)

[2] = Integrated mouse and rat PBPK model, inter-animal variability; conditions: Intravenous Estimate (%RSE); simultaneous fit of mouse and rat plasma and tissue data
[3] = Rat (225 g); Sprague-Dawley blood, 37 °C, 1 h
Description: (§3) Fresh blood was collected from BALB/c mice and Sprague-Dawley rats via cardiac puncture in tubes with lithium heparin as anticoagulant. Hematocrit was measured using a VetScan HM5 hematology analyzer (Abaxis, Union City, CA, USA). […] Aliquots of pre-warmed whole blood and plasma were spiked with the test compounds and incubated at 37 °C. After 1 h of incubation, the incubated whole blood was removed, and the plasma was separated by centrifugation. Aliquots of the incubated control plasma were also removed after 1 h of incubation. Plasma samples were treated with 8 volumes of ice-cold methanol containing internal standard (100 ng/mL spectinomycin) and analyzed for drug concentrations by LC-MS/MS [12].
(§4) The whole blood to plasma ratio k(b/p) was calculated by taking the ratio of the concentrations measured in the control plasma over the concentrations measured in the plasma centrifuged from the incubated whole blood, as shown in Equation (2). The erythrocyte to plasma partitioning coefficient k(RBC/p) was calculated from the whole blood to plasma ratio by accounting for the measured hematocrit, as shown in Equation (3):(2) k(b/p)=CCP/CP (3) k(RBC/p)=1+1/HCCP/CP−1 where CCP is the concentration of the test compound in the control plasma, CP is the concentration of the test compound in the plasma centrifuged from the incubated whole blood, and H is the measured hematocrit value.

[4] = system: plasma proteins; assay: Plasma protein binding by equilibrium dialysis (RED device), mouse plasma; assay type: in vitro ADME, BALB/c mice
Description: as §1

[5] = system: ELF proteins; assay: Fraction unbound in epithelial lining fluid calculated by Poulin and Theil equation, mouse; conditions: calculated from fu in plasma and albumin ratio plasma/ELF
Description: (§2) For intravenous administration, the bolus dose was assumed to be mixed instantaneously into the venous blood. For subcutaneous administration, the dose was administered as an external compartment, absorbed into the venous compartment via a first-order absorption rate constant and a bioavailability component. For intrapulmonary aerosol administration, we have modified the lung tissue by adding the epithelial lining fluid (ELF) sub-compartment, as shown in Figure 2. The physiological volume of the ELF sub-compartment was obtained from the literature. The dose was administered as an external compartment, absorbed into the ELF compartment via a first-order absorption rate constant and a bioavailability component. The compound was assumed to be bound to the ELF proteins, and only the unbound fraction was distributed to the other sub-compartments of the lungs and ultimately to the systemic circulation. The fraction unbound in ELF was calculated from the fraction unbound in plasma and the albumin ratio between plasma and ELF using the equation described by Poulin and Theil.

[6] = system: murine-lung-derived dendritic cells and a BALB/c-derived monocyte macrophage cell line; conditions: cited from earlier work
[7] = Parallel artificial membrane permeability assay (PAMPA); assay type: in vitro ADME; conditions: passive permeability could not be determined
[8] = cited from earlier work; for AUCinf Liver Observed / AUCinf Lung Observed / AUCinf Observed / AUCinf Spleen Observed: healthy mice; for AUCinf Observed: plasma
[9] = Mouse (20 g); BALB/c blood, 37 °C, 1 h
Description: as §3, §4

[10] = system: ELF proteins; assay: Fraction unbound in epithelial lining fluid calculated by Poulin and Theil equation, rat; conditions: calculated from fu in plasma and albumin ratio plasma/ELF
Description: as §2

[11] = Simcyp multicompartment lung and granuloma model simulation; conditions: Simcyp model input parameter (Table S1), human PBPK model
[12] = healthy rats, plasma, IV SD 10 mg/kg
Description: After the successful inter-route extrapolation of the model, we scaled the PBPK model between species by extending the model to rats. This was accomplished by incorporating the physiological parameters of a 225 g rat and updating the experimentally assessed drug-specific parameters k(b/p) and fu.

[13] = Subcutaneous PBPK model predictions vs observed plasma concentrations in Mtb infected mice; assay type: in vivo, BALB/c mice; conditions: SC dose-ranging and dose-fractionation studies
[14] = Minimalistic PBPK model, mouse (fitting and simulation); conditions: for F Bioavailability component / Ka 1st order absorption rate constant / AUCinf Liver Fold Difference / AUCinf Lung Fold Difference / AUCinf Fold Difference (predicted vs observed) / AUCinf Spleen Fold Difference: healthy mice; for AUCinf Fold Difference (predicted vs observed): plasma
[15] = healthy rats, plasma, IV SD 10 mg/kg; cited from earlier work
[16] = Intratracheal Estimate (%RSE), intrapulmonary aerosol single dose 50 mg/kg
[17] = Intravenous Estimate (%RSE), model fitted to IV single dose 10 mg/kg plasma and tissue data

CN[C@@H]1[C@H](O)[C@H](NC)[C@H]2O[C@]3(O)[C@H](O[C@@H]2[C@H]1O)O[C@H](C)C[C@H]3NC(=O)Cc1ccc(Cl)cn1 [Spectinamide 1599, 2-(5-chloroypyridin-2-yl)-N-((2R,4R,4aS,5aR,6S,7S,8R,9S,9aR, 10aS)-4a,7,9-trihydroxy-2-methyl-6,8-bis(methyl-amino)decahydro-2H-benzo[b]pyrano [2,3-e] [1,4]dioxin-4-yl)acetamide]
fuPlasma fraction unbound in plasma [1]: 0.563
ω KI→CLiver inter-animal variability on KI→CLiver [2]: 0.61 (29.8)
ω KI→CLung inter-animal variability on KI→CLung [2]: 0.87 (30.6)
ω KI→COther inter-animal variability on KI→COthers [2]: 0.48 (21.6)
ω KI→CSpleen inter-animal variability on KI→CSpleen [2]: 0.66 (41.0)
k(b/p) blood to plasma ratio [3]: 0.812
fuPlasma fraction unbound in plasma ([4]; Mouse plasma, 0.5 and 5 mg/L, 37 °C, 4 h): 0.602
plasma protein binding ([4]; mouse and rat): low plasma protein binding
fuELF fraction unbound in epithelial lining fluid [5]: 0.948
intracellular uptake [6]: concentration-dependent intracellular uptake
PAMPA concentrations in the acceptor compartment [7]: below the limit of detection
dose dependency of disposition ([8]; dose range of 10 to 400 mg/kg in mice): did not suggest any dose dependencies
AUCinf Liver Observed ([8]; IV QD5 10 mg/kg): 19.6 µg·h/g
AUCinf Liver Observed ([8]; IV SD 10 mg/kg): 19.9 µg·h/g
AUCinf Liver Observed ([8]; SC QD5 200 mg/kg): 336 µg·h/g
AUCinf Liver Observed ([8]; SC SD 50 mg/kg): 91.8 µg·h/g
AUCinf Lung Observed ([8]; IV QD5 10 mg/kg): 4.05 µg·h/g
AUCinf Lung Observed ([8]; IV SD 10 mg/kg): 3.79 µg·h/g
AUCinf Lung Observed ([8]; SC QD5 200 mg/kg): 69.1 µg·h/g
AUCinf Lung Observed ([8]; SC SD 50 mg/kg): 19.1 µg·h/g
AUCinf Observed ([8]; IPA BIW 50 mg/kg): 14200 ng·h/mL
AUCinf Observed ([8]; IPA BIW 150 mg/kg): 108000 ng·h/mL
AUCinf Observed ([8]; IPA QD5 10 mg/kg): 3570 ng·h/mL
AUCinf Observed ([8]; IPA QD5 50 mg/kg): 39800 ng·h/mL
AUCinf Observed ([8]; IPA QD5 150 mg/kg): 96900 ng·h/mL
AUCinf Observed ([8]; IPA SD 10 mg/kg): 5510 ng·h/mL
AUCinf Observed ([8]; IPA SD 50 mg/kg): 23200 ng·h/mL
AUCinf Observed ([8]; IPA SD 150 mg/kg): 59500 ng·h/mL
AUCinf Observed ([8]; IPA TIW 10 mg/kg): 5360 ng·h/mL
AUCinf Observed ([8]; IPA TIW 50 mg/kg): 24300 ng·h/mL
AUCinf Observed ([8]; IPA TIW 150 mg/kg): 61700 ng·h/mL
AUCinf Observed ([8]; IV QD5 10 mg/kg): 6370 ng·h/mL
AUCinf Observed ([8]; IV SD 10 mg/kg): 7520 ng·h/mL
AUCinf Observed ([8]; SC QD5 200 mg/kg): 227000 ng·h/mL
AUCinf Observed ([8]; SC SD 50 mg/kg): 40400 ng·h/mL
AUCinf Spleen Observed ([8]; IV QD5 10 mg/kg): 3.91 µg·h/g
AUCinf Spleen Observed ([8]; IV SD 10 mg/kg): 3.42 µg·h/g
AUCinf Spleen Observed ([8]; SC QD5 200 mg/kg): 110 µg·h/g
AUCinf Spleen Observed ([8]; SC SD 50 mg/kg): 23.6 µg·h/g
k(b/p) blood to plasma ratio [9]: 0.552
fuELF fraction unbound in epithelial lining fluid [10]: 0.940
CLR renal clearance [11]: 3.27 L/h
AUCinf Fold Difference (predicted vs observed) [12]: 1.58
difference in pharmacokinetics between healthy and infected mice [13]: no significant difference
estimated absorption half-life ([14]; IPA administration site, mice): ~ 8 min
bioavailability ([14]; IPA administration, mice): 33%
F Bioavailability component [14, 16]: 0.33 (2.03)
Ka 1st order absorption rate constant [14, 16]: 5.03 (4.53)
KC→IKidney 1st order back flux from cellular sub compartment of the kidney [14, 17]: 0.15 (31.0) 1/h
KC→ILiver 1st order back flux from cellular sub compartment of the liver [14, 17]: 0.061 (13.7) 1/h
KC→ILung 1st order back flux from cellular sub compartment of the lung [14, 17]: 0.028 (41.5) 1/h
KC→ISpleen 1st order back flux from cellular sub compartment of the spleen [14, 17]: 0.01 (106) 1/h
KC→Iothers 1st order back flux from cellular sub compartment of the other tissues [14, 17]: 7.0 × 10^−5 (142) 1/h
F Bioavailability component ([14]; Subcutaneous Estimate (%RSE)): 0.86 (6.15)
Ka 1st order absorption rate constant ([14]; Subcutaneous Estimate (%RSE)): 4.36 (7.86)
AUCinf Liver Fold Difference ([14]; IV QD5 10 mg/kg): 1.58
AUCinf Liver Fold Difference ([14]; IV SD 10 mg/kg): 1.2
AUCinf Liver Fold Difference ([14]; SC QD5 200 mg/kg): 1.55
AUCinf Liver Fold Difference ([14]; SC SD 50 mg/kg): 1.3
AUCinf Lung Fold Difference ([14]; IV QD5 10 mg/kg): 1.39
AUCinf Lung Fold Difference ([14]; IV SD 10 mg/kg): 1.65
AUCinf Lung Fold Difference ([14]; SC QD5 200 mg/kg): 1.42
AUCinf Lung Fold Difference ([14]; SC SD 50 mg/kg): 1.41
AUCinf Fold Difference (predicted vs observed) ([14]; IPA BIW 50 mg/kg): 1.70
AUCinf Fold Difference (predicted vs observed) ([14]; IPA BIW 150 mg/kg): 1.49
AUCinf Fold Difference (predicted vs observed) ([14]; IPA QD5 10 mg/kg): 1.36
AUCinf Fold Difference (predicted vs observed) ([14]; IPA QD5 50 mg/kg): 1.64
AUCinf Fold Difference (predicted vs observed) ([14]; IPA QD5 150 mg/kg): 1.33
AUCinf Fold Difference (predicted vs observed) ([14]; IPA SD 10 mg/kg): 1.13
AUCinf Fold Difference (predicted vs observed) ([14]; IPA SD 50 mg/kg): 1.05
AUCinf Fold Difference (predicted vs observed) ([14]; IPA SD 150 mg/kg): 1.23
AUCinf Fold Difference (predicted vs observed) ([14]; IPA TIW 10 mg/kg): 1.11
AUCinf Fold Difference (predicted vs observed) ([14]; IPA TIW 50 mg/kg): 1.00
AUCinf Fold Difference (predicted vs observed) ([14]; IPA TIW 150 mg/kg): 1.18
AUCinf Fold Difference (predicted vs observed) ([14]; IV QD5 10 mg/kg): 1.39
AUCinf Fold Difference (predicted vs observed) ([14]; IV SD 10 mg/kg): 1.18
AUCinf Fold Difference (predicted vs observed) ([14]; SC QD5 200 mg/kg): 1.43
AUCinf Fold Difference (predicted vs observed) ([14]; SC SD 50 mg/kg): 1.02
AUCinf Spleen Fold Difference ([14]; IV QD5 10 mg/kg): 1.44
AUCinf Spleen Fold Difference ([14]; IV SD 10 mg/kg): 1.47
AUCinf Spleen Fold Difference ([14]; SC QD5 200 mg/kg): 1.14
AUCinf Spleen Fold Difference ([14]; SC SD 50 mg/kg): 1.11
estimated first-order absorption half-life ([14]; subcutaneous administration site, mice): ~ 10 min
bioavailability ([14]; subcutaneous administration, mice): 86%
AUCinf Observed [15]: 19800 ng·h/mL
